Data: patent US9326513B2, “Fungicidal compositions” (Syngenta Participations AG, priority 2011, dated 2016)

Assays:
Assay type in all cases: cell-based
Septoria tritici = Septoria tritici (leaf blotch), PDB microtiter plate, visual after 72 hrs; details: single compound
Botrytis cinerea = Botrytis cinerea (gray mould), PDB microtiter plate, visual after 72 hrs; details: for inhibition at 0.5 ppm: rate 0.5 ppm
[1] = test system: Monographella nivalis (syn. Microdochium nivale, Fusarium nivale); assay: Monographella nivalis (snow mould, foot rot of cereals), PDB microtiter plate, visual after 72 hrs; details: applied alone
[2] = Botrytis cinerea, alone, rate 0.0625 ppm, read-out: Activity (%)
[3] = Botrytis cinerea, alone, rate 0.125 ppm
[4] = Botrytis cinerea, alone, rate 0.25 ppm
[5] = Monographella nivalis, 0.0625 ppm
[6] = Monographella nivalis, 0.125 ppm
[7] = Monographella nivalis, 0.25 ppm
[8] = Monographella nivalis, rate 0.03125 ppm
[9] = Monographella nivalis, rate 0.0625 ppm
[10] = Monographella nivalis, rate 0.125 ppm
[11] = Monographella nivalis, rate 0.25 ppm

`O=C(NCCc1ncc(C(F)(F)F)cc1Cl)c1ccccc1C(F)(F)F` [Fluopyram] gave an inhibition at 0.125 ppm (Septoria tritici; Zymoseptoria tritici) of 0% and an inhibition at 0.25 ppm (Septoria tritici; Zymoseptoria tritici, 0.25 ppm, read-out: Activity (%)) of 50%.
`CCOC(=O)C1CC(=O)C(=C(O)C2CC2)C(=O)C1` (stereo not shown) [Trinexapacethyl] gave an inhibition at 1.25 ppm (Botrytis cinerea; Botrytis cinerea, alone, rate 1.25 ppm) of 0%, an inhibition at 2.5 ppm (Botrytis cinerea; Botrytis cinerea, alone, rate 2.5 ppm, read-out: Activity (%)) of 0% and an inhibition at 5 ppm (Botrytis cinerea; Botrytis cinerea, alone, rate 5 ppm, read-out: Activity (%)) of 0%. For the same compound, the inhibition at 10 ppm (Botrytis cinerea; Botrytis cinerea, alone, rate 10 ppm, read-out: Activity (%)) was 0%, the inhibition at 20 ppm (Botrytis cinerea; Botrytis cinerea, alone, rate 20 ppm, read-out: Activity (%)) was 0% and the inhibition at 0.625 ppm ([1]; Monographella nivalis, 0.625 ppm) was 0%. For the same compound, the inhibition at 1.25 ppm ([1]; Monographella nivalis, 1.25 ppm) was 0%, the inhibition at 2.5 ppm ([1]; Monographella nivalis, 2.5 ppm) was 0% and the inhibition at 5 ppm ([1]; Monographella nivalis, 5 ppm) was 0%. The inhibition at 0.12625 ppm ([1]; Monographella nivalis, rate 0.12625 ppm) was 0%, the inhibition at 0.3125 ppm ([1]; Monographella nivalis, rate 0.3125 ppm) was 0% and the inhibition at 0.625 ppm ([1]; Monographella nivalis, rate 0.625 ppm) was 0%. It also gave an inhibition at 1.25 ppm ([1]; Monographella nivalis, rate 1.25 ppm) of 0% and an inhibition at 2.5 ppm ([1]; Monographella nivalis, rate 2.5 ppm) of 0%.
In the case of `C#CCOc1ccc(CCNC(=O)C(OCC#C)c2ccc(Cl)cc2)cc1OC` (stereo not shown) [Mandipropamid], the “Activity (%)” value (Botrytis cinerea; alone, rate 5 ppm) is reported as 0%, the “Activity (%)” value (Botrytis cinerea; alone, rate 10 ppm) is reported as 0% and the “Activity (%)” value (Botrytis cinerea; alone, rate 20 ppm) is reported as 0%. The “Activity (%)” value (Septoria tritici; 0.5 ppm) was 70%, the “Activity (%)” value ([1]; rate 0.03125 ppm) was 0% and the “Activity (%)” value ([1]; rate 0.0625 ppm) was 0%.
For `Cn1cc(C(=O)Nc2ccccc2-c2cc(F)c(F)c(F)c2)c(C(F)F)n1` [Fluxapyroxad], the “Activity (%)” value (Botrytis cinerea; alone, rate 0.015625 ppm) was 20%, the “Activity (%)” value (Botrytis cinerea; alone, rate 0.0625 ppm) was 50% and the “Activity (%)” value (Botrytis cinerea; alone, rate 0.125 ppm) was 70%. The “Activity (%)” value (Septoria tritici; 0.015625 ppm) was 0%, the “Activity (%)” value (Septoria tritici; 0.03125 ppm) was 0% and the “Activity (%)” value (Septoria tritici; 0.0625 ppm) was 20%.
For `CO/C=C(/C(=O)OC)c1ccccc1Oc1cc(Oc2ccccc2C#N)ncn1` [Azoxystrobin], the “Activity (%)” value (Botrytis cinerea; alone, rate 0.025 ppm) was 0%, the “Activity (%)” value (Botrytis cinerea; alone, rate 0.05 ppm) was 0% and the “Activity (%)” value (Botrytis cinerea; alone, rate 0.1 ppm) was 0%. The “Activity (%)” value (Botrytis cinerea; alone, rate 0.125 ppm) was 0%, the “Activity (%)” value (Botrytis cinerea; alone, rate 0.2 ppm) was 20% and the “Activity (%)” value (Botrytis cinerea; alone, rate 0.25 ppm) was 20%. The “Activity (%)” value ([1]; 0.00625 ppm) was 50%, the “Activity (%)” value ([1]; rate 0.0015625 ppm) was 0% and the “Activity (%)” value ([1]; rate 0.003125 ppm) was 20%. The “Activity (%)” value ([1]; rate 0.00625 ppm) was 70%.
`CCCC1COC(Cn2cncn2)(c2ccc(Cl)cc2Cl)O1` (stereo not shown) [Propiconazole] showed an inhibition at 0.0625 ppm (Botrytis cinerea; [2]) of 0%, an inhibition at 0.125 ppm (Botrytis cinerea; [3]) of 0% and an inhibition at 0.25 ppm (Botrytis cinerea; [4]) of 0%. For the same compound, the inhibition at 0.5 ppm (Botrytis cinerea; Botrytis cinerea, alone) was 50%, the inhibition at 0.25 ppm (Botrytis cinerea; Botrytis cinerea, single compound, rate 0.25 ppm) was 0% and the inhibition at 0.5 ppm (Botrytis cinerea; Botrytis cinerea, single compound) was 50%. For the same compound, the inhibition at 0.125 ppm (Septoria tritici; Zymoseptoria tritici) was 50%, the inhibition at 0.0625 ppm [1, 5] was 0% and the inhibition at 0.125 ppm [1, 6] was 0%. The inhibition at 0.25 ppm [1, 7] was 0%, the inhibition at 0.5 ppm ([1]; Monographella nivalis, 0.5 ppm) was 0% and the inhibition at 1 ppm ([1]; Monographella nivalis, 1 ppm) was 20%. The inhibition at 0.015625 ppm ([1]; Monographella nivalis, rate 0.015625 ppm) was 0%, the inhibition at 0.03125 ppm [1, 8] was 0% and the inhibition at 0.0625 ppm [1, 9] was 0%. The inhibition at 0.125 ppm [1, 10] was 0% and the inhibition at 0.25 ppm [1, 11] was 0%.
`CON(C(=O)c1cn(C)nc1C(F)F)C(C)Cc1c(Cl)cc(Cl)cc1Cl` (stereo not shown) [(VI), 3-(difluoromethyl)-N-methoxy-1-methyl-N-[1-methyl-2-(2,4,6-trichlorophenyl)ethyl]-1H-pyrazole-4-carboxamide, reference compound] gave an inhibition at 0.0078125 ppm (Botrytis cinerea; Botrytis cinerea, alone, rate 0.0078125 ppm) of 20%, an inhibition at 0.015625 ppm (Botrytis cinerea; Botrytis cinerea, alone, rate 0.015625 ppm) of 50% and an inhibition at 0.03125 ppm (Botrytis cinerea; Botrytis cinerea, alone, rate 0.03125 ppm, read-out: Activity (%)) of 70%. For the same compound, the inhibition at 0.0625 ppm (Botrytis cinerea; [2]) was 70%, the inhibition at 0.0625 ppm [1, 5] was 0% and the inhibition at 0.125 ppm [1, 6] was 50%.
`OC(Cn1cncn1)(c1ccc(F)cc1)c1ccccc1F` (stereo not shown) [Flutriafol] was tested, and the inhibition at 0.125 ppm (Botrytis cinerea; [3]) was 0%, the inhibition at 0.25 ppm (Botrytis cinerea; [4]) was 0% and the inhibition at 0.5 ppm (Botrytis cinerea; Botrytis cinerea, alone) was 0%. For the same compound, the inhibition at 1 ppm (Botrytis cinerea; Botrytis cinerea, alone, rate 1 ppm) was 0%, the inhibition at 2 ppm (Botrytis cinerea; Botrytis cinerea, alone, rate 2 ppm) was 0% and the inhibition at 0.5 ppm (Septoria tritici; Zymoseptoria tritici, 0.5 ppm) was 0%. The inhibition at 1 ppm (Septoria tritici; Zymoseptoria tritici, 1 ppm) was 0%, the inhibition at 0.0625 ppm [1, 5] was 0% and the inhibition at 0.125 ppm [1, 6] was 0%. It also gave an inhibition at 0.25 ppm [1, 7] of 0%, an inhibition at 0.5 ppm ([1]; Monographella nivalis, 0.5 ppm) of 0% and an inhibition at 0.03125 ppm [1, 8] of 0%. The inhibition at 0.0625 ppm [1, 9] was 0%, the inhibition at 0.125 ppm [1, 10] was 0% and the inhibition at 0.25 ppm [1, 11] was 0%. It also gave an inhibition at 0.5 ppm ([1]; Monographella nivalis, rate 0.5 ppm) of 0%, an inhibition at 1 ppm ([1]; Monographella nivalis, rate 1 ppm) of 0% and an inhibition at 2 ppm ([1]; Monographella nivalis, rate 2 ppm) of 0%.
